According to patent US6551774B1, “Diagnostic methods for conditions associated with elevated cellular levels of telomerase activity” (Board of Regents, The University of Texas System, priority 1992, dated 2003):
Structures can show the parent of a compound that is named as a salt. Where two headings read alike, the source gives them in different places.

Columns and labels:
[1] = biological target: T1, Tetrahymena thermophila telomerase (Tetrahymena thermophila, UniProt O77448); assay: Tetrahymena telomerase in vitro assay (incorporation of 32P label, gel of products); format: biochemical; details: for Km: from competition of unlabeled with 32P-labeled nucleotide; for position on the telomerase RNA template of strongest chain termination: template residues numbered 1 to 9 (5′ to 3′); for effect on the telomerase reaction: dideoxynucleoside triphosphates
T1 construct: A standard assay contained 50% by volume of heparin-agarose purified telomerase; endogenous in cells; host or cells: Tetrahymena thermophila cell extracts, heparin-agarose purified
T1 sequence (O77448 1-1117): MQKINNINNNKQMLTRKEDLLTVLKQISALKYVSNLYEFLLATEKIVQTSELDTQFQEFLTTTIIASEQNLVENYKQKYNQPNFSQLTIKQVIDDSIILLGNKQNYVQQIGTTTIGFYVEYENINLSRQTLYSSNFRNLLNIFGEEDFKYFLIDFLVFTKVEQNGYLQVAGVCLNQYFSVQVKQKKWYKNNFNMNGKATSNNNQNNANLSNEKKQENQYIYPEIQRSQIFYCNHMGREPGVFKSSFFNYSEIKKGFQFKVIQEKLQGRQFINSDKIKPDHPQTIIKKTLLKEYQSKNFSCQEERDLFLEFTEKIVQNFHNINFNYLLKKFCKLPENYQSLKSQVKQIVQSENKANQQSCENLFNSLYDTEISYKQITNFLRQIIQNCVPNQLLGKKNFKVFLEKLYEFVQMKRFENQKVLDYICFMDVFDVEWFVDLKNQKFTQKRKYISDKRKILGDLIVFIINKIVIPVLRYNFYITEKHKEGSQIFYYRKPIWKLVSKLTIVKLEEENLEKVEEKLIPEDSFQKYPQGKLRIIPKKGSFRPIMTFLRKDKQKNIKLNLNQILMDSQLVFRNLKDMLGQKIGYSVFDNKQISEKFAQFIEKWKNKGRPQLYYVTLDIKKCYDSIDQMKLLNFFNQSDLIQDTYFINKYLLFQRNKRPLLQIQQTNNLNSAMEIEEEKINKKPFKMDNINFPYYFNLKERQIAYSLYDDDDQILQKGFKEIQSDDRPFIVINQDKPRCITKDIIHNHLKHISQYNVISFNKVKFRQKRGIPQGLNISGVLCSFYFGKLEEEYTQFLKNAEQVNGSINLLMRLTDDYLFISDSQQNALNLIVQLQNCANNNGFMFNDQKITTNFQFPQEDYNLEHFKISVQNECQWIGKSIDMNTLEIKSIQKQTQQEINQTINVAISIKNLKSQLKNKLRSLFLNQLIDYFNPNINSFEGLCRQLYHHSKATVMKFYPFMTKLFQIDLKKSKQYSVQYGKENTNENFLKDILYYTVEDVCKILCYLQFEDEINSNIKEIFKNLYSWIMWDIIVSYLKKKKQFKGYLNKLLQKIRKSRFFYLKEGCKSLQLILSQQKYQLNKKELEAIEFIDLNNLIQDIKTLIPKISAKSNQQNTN
T1 sequence (W7X6T2 1-542 partner): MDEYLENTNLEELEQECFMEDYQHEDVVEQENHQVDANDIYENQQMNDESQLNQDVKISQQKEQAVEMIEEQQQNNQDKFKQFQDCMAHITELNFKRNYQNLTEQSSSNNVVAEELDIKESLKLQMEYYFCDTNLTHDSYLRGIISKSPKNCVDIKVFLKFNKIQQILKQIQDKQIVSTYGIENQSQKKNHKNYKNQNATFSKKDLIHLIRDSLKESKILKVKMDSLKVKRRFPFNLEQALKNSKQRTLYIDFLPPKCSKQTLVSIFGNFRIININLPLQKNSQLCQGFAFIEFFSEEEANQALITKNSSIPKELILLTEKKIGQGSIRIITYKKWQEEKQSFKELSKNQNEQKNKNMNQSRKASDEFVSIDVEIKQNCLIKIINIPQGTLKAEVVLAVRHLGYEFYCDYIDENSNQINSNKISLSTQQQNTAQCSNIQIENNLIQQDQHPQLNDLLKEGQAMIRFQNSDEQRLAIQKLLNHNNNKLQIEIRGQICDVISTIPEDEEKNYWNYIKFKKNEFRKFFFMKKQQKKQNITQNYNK
Protocol: AZT-triphosphate was obtained from Burroughs Wellcome, N.C. Ara-G-triphosphate was purchased from Calbiochem and ddNTPs from Sigma. Reaction mixes were kept on ice until ready for use, and then mixed into tubes containing analog for incubation at 30° C. Reaction times were thirty minutes. […] Identical reactions were run without primers as controls. […] Incorporation of ^32P label from either ^32P-TTP or ^32P-dGTP was measured to monitor the reaction rate.
The standard telomerase assay used in this example consists of incorporation of dGTP and TTP substrates, one triphosphate ^32P-labeled, into synthesized DNA in the reaction shown in FIG. 18A. […] Incorporation of ^32P label from either ^32P-TTP or ^32P-dGTP was measured to monitor the reaction rate, and the distributions of elongation products were analyzed by denaturing polyacrylamide gel electrophoresis.

Tetrahymena cells [2] = assay: Telomere length in vegetatively grown Tetrahymena by Southern blot; format: cell-based, Tetrahymena thermophila; details: 100 μM and 1 mM in Isobroth, after 5 days (16 generations)
Protocol: For analysis of macronuclear DNA from cultures containing the nucleoside analog AZT (Sigma), or controls lacking analog, at various timepoints during vegetative divisions, cells from stationary stock cultures were inoculated into 25 ml thymine-deficient Iso-sensitest broth (‘Isobroth’, Oxoid USA) in 250 ml flasks. Cultures were incubated at 30° C. with shaking (100 rpm) for 48 hours. Cells were counted and plated at 1000 cells/1.5 ml in 24-well plates (Falcon) and grown at 30° C., without shaking, for 48 hours. 5 μl of these log phase cells were used to inoculate 1 ml cultures (Isobroth) containing varied concentrations of nucleoside analog. Thereafter, every 2-4 days cells were transferred, either 5 μl per well, or 1-3 μl using a multi-pronged replicator into fresh 1 ml broth containing AZT. Remaining cells were pelleted and stored at −80° C. until processed for DNA analysis.
For analysis of macronuclear DNA from vegetative cultures containing the nucleoside analogs Ara-G (Calbiochem), ddG (Calbiochem), or ddI (Calbiochem), or controls lacking analog, stock cultures were grown overnight in 2% PPYS as described. Cells were counted and plated at 100 cells/2 ml in 2% PPYS containing varied amounts of analog, 1% DMSO (Fisher) (as a control for ddG and Ara-G), or 2% PPYS alone. Cells were replica plated into fresh medium every 2-6 days, and remaining cells were pelleted and stored at −80° C. until processed for DNA analysis.
For analysis of macronuclear DNA from vegetative cultures containing d4T (Sigma) or control lacking the analog, stock cultures (SB210 VI) were grown overnight in Isobroth as described. Cells were then counted and duplicate cultures inoculated at 500 cells/5 ml Isobroth in 50 ml conical tubes, and grown at 30° C., shaking 80 rpm. 500-2000 cells were transfered to fresh broth every 2-4 days, and the remainder pelleted and stored at −80° C. until processed for DNA analysis.
Restriction digests, agarose gel electrophoresis, transfer of DNA to Nytran filters (Schleicher and Schuell), and hybridization with ^32P-nick-trapplated or random-primed probes were carried out using standard procedures (Maniatis et.al. 1989). Telomere length was analyzed as described previously for Tetrahymena [Larson 50 Cell, 477, 1987].
Telomere lengths in cells grown in the presence of the different analogs were monitored by Southern blot analysis of DNA samples extracted at a series of time points during the subculturings. The telomeres of cells grown vegetatively in 1 and 5 mM AZT in 2% PPYS medium were reproducibly shortened by up to an average of 170 base pairs compared with the control cultures grown in 2% PPYS in the absence of the drug (FIG. 21A and B). This shortening of telomeres occured in a concentration-dependent manner (FIG. 21B), with at least 50% of the maximal shortening effect occurring by 10 μM AZT, the lowest concentration tested.

Tetrahymena cells [3] = assay: Progeny formation (cycloheximide resistance) of Tetrahymena conjugated in the presence of analog; format: cell-based, Tetrahymena thermophila; details: for % CHX-R: 0.017 mM analog (head prints MM)
Protocol: For analysis of cycloheximide (CHX) sensitivity of cells conjugated in the presence of analog, 50 ml cultures of each cell type were grown overnight in 2% PPYS, starved in Dryl's for 18 hours, mated (5×10^5 cells/ml) for 6 hours, then analog was added. Cells were allowed to complete mating in the presence of the analog. Twenty-four hours after mixing, cells were diluted in Dryl's solution, counted and plated at 1 cell per well of 96-well plates in 1% PPYS without analog. Cells were grown for 4 days in a humid chamber at 30° C., without shaking. Cells were then replica plated into 1% PPYS plus 15 μg/ml cycloheximide, allowed to grow for four days before scoring, and percent of CHX-resistant wells was calculated. Because generation of progeny expressing the cycloheximide marker requires successful production of a new macronucleus, cells whose macronuclear development was disrupted by the analog are killed in CHX.
This process involves de novo formation of new macronuclear telomeres in the progeny cells. Macronuclear development in ciliated protozoans such as Tetrahymena involves developmentally programmed, site-specific fragmentation of germline chromosomes into linear subchromosomes, whose ends are healed by de novo addition of telomeres. […] Because of the immediate requirement for telomere addition to fragmented DNA, it is possible that the latter process might be more sensitive to telomerase inhibition than telomere maintenance during vegetative growth. To test whether nucleoside analogs cause inhibition of macronuclear development due to a disruption of telomere formation, we mated two strains of Tetrahymena which are sensitive to cycloheximide, but whose progeny after mating are resistant to cycloheximide. Synchronized mated cells were treated with AZT at concentrations ranging from 10 μM to 5 mM for a period beginning just prior to when macronuclear development begins and continuing during macronuclear development (the period 6-24 hours after mating was initiated). […] In attempts to maximize the effect of AZT, cells were either refed at 6 hrs with 2% PPYS or Isobroth, or starved until 24 hrs (the duration of the AZT treatment). Such starvation arrests macronuclear development at an intermediate stage. When refed, macronuclear development would then be forced to proceed in the presence of the AZT. Control, unmated parental cells were also plated and exposed to drug.

`Cc1cn([C@H]2C[C@H](O)[C@@H](COP(=O)(O)OP(=O)(O)OP(=O)(O)O)O2)c(=O)[nH]c1=O` [TTP] gave a Km [1] of ~5 µM.
With `O=c1[nH]cnc2c1ncn2[C@H]1CC[C@@H](COP(=O)(O)OP(=O)(O)OP(=O)(O)O)O1` [ddITP, dideoxyinosine triphosphate] the IC50 [1] was 3 µM and the “position on the telomerase RNA template of strongest chain termination” value [1] was 5.
For `Cc1cn([C@H]2C=C[C@@H](CO)O2)c(=O)[nH]c1=O` [d4T, 3′ deoxy-2′,3′-didehydrothymidine], the telomere length (Tetrahymena cells [2]) was “produced shortened telomeres”.
With `Nc1nc2c(ncn2[C@H]2CC[C@@H](COP(=O)(O)OP(=O)(O)OP(=O)(O)O)O2)c(=O)[nH]1` [ddGTP] the IC50 [1] was < 0.1 µM.
In the case of `Nc1ccn([C@H]2CC[C@@H](COP(=O)(O)OP(=O)(O)OP(=O)(O)O)O2)c(=O)n1` [ddCTP], the “effect on the telomerase reaction” value [1] is reported as “no significant effects”.
Work on `Nc1nc2c(ncn2[C@H]2C[C@H](O)[C@@H](COP(=O)(O)OP(=O)(O)OP(=O)(O)O)O2)c(=O)[nH]1` [dGTP] yielded a Km [1] of 1 to 2 µM.
`Cc1cn([C@H]2CC[C@@H](COP(=O)(O)OP(=O)(O)OP(=O)(O)O)O2)c(=O)[nH]c1=O` [ddTTP] showed an IC50 [1] of 5 µM.
In the case of `CO[C@H]1/C=C/O[C@@]2(C)Oc3c(C)c(O)c4c(O)c(c(/C=N/N5CCN(C)CC5)c(O)c4c3C2=O)NC(=O)/C(C)=C\C=C\[C@H](C)[C@H](O)[C@@H](C)[C@@H](O)[C@@H](C)[C@H](OC(C)=O)[C@@H]1C` [rifampin], the “effect on quantitative incorporation of label and banding pattern” value ([1]; concentrations up to 100 μg/ml) is reported as “did not affect the quantitative incorporation of label or change the banding pattern”.
`Nc1nc2c(ncn2COCCO)c(=O)[nH]1` [Acyclo-G, Acycloguanosine] was tested, and the “% CHX-R” value (Tetrahymena cells [3]; first block for the analog) was 75%, the “% CHX-R” value (Tetrahymena cells [3]; second block for the analog) was 69% and the “# CHX-R” value (Tetrahymena cells [3]; 0.017 mM analog, first block for the analog, number of cycloheximide-resistant wells) was 80. The “irreversible disruption of macronuclear development” value (Tetrahymena cells [3]; analog present during conjugation) was “little or no irreversible disruption”.
For `[H]/N=C(/N)N[C@H]1[C@H](O)[C@@H](O)[C@H](O[C@@H]2O[C@@H](C)[C@](O)(C=O)[C@H]2O[C@@H]2O[C@@H](CO)[C@H](O)[C@@H](O)[C@@H]2NC)[C@@H](N/C(N)=N\[H])[C@@H]1O` [Streptomycin sulfate, streptomycin sulfate], the “effect on amount and average length of elongation products” value ([1]; 40 mM, 40 mM sodium sulfate control little decrease) was “dramatically reduced”.
In the case of `Nc1nc2c(ncn2[C@@H]2O[C@H](COP(=O)(O)OP(=O)(O)OP(=O)(O)O)[C@@H](O)[C@@H]2O)c(=O)[nH]1` [Ara-GTP, arabinofuranyl-guanosine triphosphate], the IC50 ([1]; standard assay, 32P-dGTP / 32P-NTP incorporation, 30 min at 30° C., read-out: concentration at which 50% inhibition of incorporation of 32P label occurred) is reported as 0.7 µM and the “position on the telomerase RNA template of strongest chain termination” value [1] is reported as 4.
For `Nc1ncnc2c1ncn2[C@H]1CC[C@@H](COP(=O)(O)OP(=O)(O)OP(=O)(O)O)O1` [ddATP], the “effect on the telomerase reaction” value [1] was “no significant effects”.
